# Data as given in patent US20180066018A1, “CONFORMATIONALLY STABLE ANALOGS OF THE RESPONSE SELECTIVE C5A AGONIST EP67” (Board Of Regents Of The University Of Nebraska, priority 2015, published 2018).
# Entries after “also recorded” stand apart in the source; their conditions may differ. Non-standard residues stand in square brackets, D forms with d. No end group written: not given here. NMeL = CN[C@@H](CC(C)C)C(=O)O; Aib = CC(C)(N)C(=O)O
# B1: C5a: short (74 residues in human) glycoprotein generated by enzymatic cleavage of complement C5 (protein, UniProt P01031 678-751, looked up)
# C5a anaphylatoxin: TLQKKIEEIAAKYKHSVVKKCCYDGACVNNDETCEQRAARISLGPRCIKAFTECCVVASQLRANISHKDMQLGR
# modifications: C5a anaphylatoxin
# notes: short (74 residues in human) glycoprotein generated by enzymatic cleavage of complement C5
# Assays:
# [1] = test system: human monocytes; test: Differentiation/maturation of human monocytes into macrophages in vitro (light microscopy); type: cell-based
# Experimental: To assess the binding of EP67 analogs to APCs and subsequent biological activity on these cells, peptides were assayed for their ability to elicit the activation of monocytes in vitro and to drive the differentiation/maturation of human monocytes into macrophages and subsequently dendritic cells.
# Briefly, monocytes were harvested from human peripheral blood mononuclear cells. The human monocytes were incubated at 37 degrees C. for 24 hrs in media the presence of PBS, 100 μg/ml of EP67, 100 μg/ml of EP144, and 100 μg/ml of EP145. The cells were also incubated with for 48 hrs with sEP67 as a control. The cells were then photographed under light microscopy at 20× or 40× magnification. […] Panels A-C & G are at 20× magnification and Panels D-E are at 40× magnification.
# [2] = test system: human and mouse macrophages; conditions: cited from earlier work
# [3] = test system: C5aR-bearing macrophages vs. C5aR-bearing neutrophils; test: Bioselectivity: cytokine release from macrophages vs. MPO release from neutrophils; type: cell-based; conditions: antilog[(−Δmacrophage)−(−Δneutrophil)], relative to C5a set at 1
# Text: 2. Potency. Analog potency will be measured by half maximal effective concentration (EC50); i.e., the concentration of the analog to induce a response halfway between baseline and maximum effect. EC50 values for each analog be determined in two separate assays: cytokine release from macrophages and MPO release from neutrophils.
# In macrophages, we will measure the release of the TH1 cytokines IL-6, TNFα, and INFγ in accordance to our previously published methods (Morgan et al. Enhancement of In Vivo and In Vitro Immune Functions by a Conformationally Biased, Response-Selective Agonist of Human C5a: Implications for a Novel Adjuvant in Vaccine Design. Vaccine 28:463-469, 2010; Morgan et al. A novel adjuvant for vaccine development in the aged. Vaccine 28:8275-8279, 2010). These cytokines are consistently released in readily measurable amounts from macrophages (as well as monocytes and dendritic cells) and will be representative of what we have seen with EP67 and consistent with the nature of the supporting data presented above. Briefly, macrophages will be incubated in the presence of various concentrations of analogs (10, 50, 100, 200 μg/ml) in standard cell culture conditions for 6, 12, and 24, hrs. […]
# 3. […] Analog selectivity for cytokine release from macrophages vs. MPO release from neutrophils will be determined by the following equation: […]
# [4] = test system: human and porcine monocytes; conditions: cited from earlier work
# [5] = NMR (ROESY) determination of cis/trans conformer populations of the Met-Xaa peptide bond; type: physicochemical; conditions: in solution
# Text: NMR spectroscopy is the best method for detection of cis/trans prolyl isomerization in a peptide. AAx-Pro cis/trans isomerization (where AAx is any adjacent amino acid residue) is detectable via two resonance frequencies in the NMR spectra per nuclear spin in the proximity of the isomerizing bond. Rotating-Frame NOE Spectroscopy (ROESY) was used to analyze EP67 (150 msec mixing time) in DMSO-d6. Characteristic NOE patterns readily discriminate the resonances arising from the cis and trans conformers allowing for specific assignments of each. Also, the relative populations of each conformer can be determined by integration of the separate peak volumes. Short ^1H-^1H distances (NOEs) between the alpha proton of AAx and the alpha proton of Pro are diagnostic of the cis AAx-Pro peptide bond. On the other hand, an observed NOE between the alpha proton of AAx and the delta protons of Pro are diagnostic of the trans AAx-Pro peptide bond.
# where AA and AA′ are adjacent amino acids.
# Analog peptides can be analyzed by NMR spectroscopy to verify structure and ascertain cis/trans conformer ratios of the Pro-substituted analogs. Special attention should be paid to the angles formed about α-carbon […]) and carbonyl carbon (Ψ and ω bonds) in the Met residue to the N-terminus of the substituted Pro residues. […]
# [6] = 100 μg/ml, 37 degrees C., 24 hrs
molecule,measurement,setting,value
"YSFKDM(dmP)(MeL)aR (YSFKDMXLAR; 5,5'-dimethylproline, N-methyl-Leu, D-Ala; MOD_RES (7)..(7) Xaa is 5,5′-dimethylproline; MOD_RES (8)..(8) N-methyl Leu; MOD_RES (9)..(9) D-Ala) [EP145, EP67 analog with Pro substituted with 5,5′-dimethylproline]",differentiation of human monocytes to macrophages (adhesion to substrate and flattening),[1]; [6],drive the differentiation of human monocytes to macrophages; also recorded: monocytes mature into macrophages
Tyr-Ser-Phe-Lys-Asp-Met-Pro-(MethylLeu)-D-Ala-Arg (YSFKDMP[NMeL][dA]R) [EP67],"release of Th1 cytokines (IL-1β, IL-6, IL-8, IL-12, TNFα, IFNγ)",[2],induces the release of T helper type 1 (Th1) cytokines
same,"release of Th2 cytokines (IL-2, IL-4, IL-5, IL-10)",[2],few T helper type 2 (Th2) cytokines
same,selectivity factor for macrophage activity over that of neutrophils,[3],2951
same,necrosis and apoptosis of the macrophages/dendritic cells once generated,[4],decreases necrosis and apoptosis
same,differentiation of monocytes to macrophages and dendritic cells,[4]; human and porcine monocytes,induces the differentiation of human and porcine monocytes to macrophages and dendritic cells
same,differentiation of human monocytes to macrophages (adhesion to substrate and flattening),[1]; [6],monocytes mature into macrophages
"YSFKDM(Aib)LaR (YSFKDM[Aib]L[dA]R-OH) [EP144, EP67 analog with Pro substituted with 2-aminoisobutyric acid and MeL with Leu]",cis:trans conformer ratio,[5],all-trans
same,differentiation of human monocytes to macrophages (adhesion to substrate and flattening),[1]; [6],drive the differentiation of human monocytes to macrophages; also recorded: monocytes mature into macrophages
M(MeL)RFPDaYKS (M[NMeL]RFPD[dA]YKS) [sEP67],differentiation of human monocytes to macrophages (adhesion to substrate and flattening),"[1]; control peptide, 48 hrs",do not exhibit this phenotype
B1,selectivity factor for macrophage activity over that of neutrophils,[3],1
